Source: ChEMBL document CHEMBL5543125, “Discovery of 2,3-Dihydro[1,4]dioxino[2,3-g]benzofuran Derivatives as Protease Activated Receptor 4 (PAR4) Antagonists with Potent Antiplatelet Aggregation Activity and Low Bleeding Tendency” (J Med Chem, 2024)
The source made the active and inactive calls. The rule behind the calls is not given here.

Assays:
[1] = Metabolic stability in human liver microsomes assessed as half life at 1 uM preincubated for 1 hr followed by NADPH addition and measured upto 60 mins by LC-MS/MS analysis; type: ADME, Microsome; details: time < 120 min
Platelet [2] = assay: Inhibition of platelet aggregation in human platelet rich plasma preincubated for 5 mins followed by aggregation inducer addition and measured after 5 mins by light transmission aggregometry; type: functional, cell-based
Platelet [3] = assay: Inhibition of platelet aggregation in human platelet rich plasma at 20 uM preincubated for 5 mins followed by aggregation inducer addition and measured after 5 mins by light transmission aggregometry relative to control; type: functional; details: 10 min
[4] = biological target: T1, Proteinase-activated receptor 4 (Homo sapiens) (UniProt Q96RI0); assay: (§1) Antagonist activity at PAR4 in human plasma assessed as inhibition of PAR4-activated peptide AYPGPK-NH2 induced platelet aggregation by measuring residual aggregation rate at 20 nM to 1 uM preincubated for 5 mins followed by aggregation inducer addition and measured after 5 mins by light transmission aggregometry relative to control; type: functional, cell-free; details: filed as antagonist, dose 20-1000 nM, time 10.0 min
T1 sequence (whole entry): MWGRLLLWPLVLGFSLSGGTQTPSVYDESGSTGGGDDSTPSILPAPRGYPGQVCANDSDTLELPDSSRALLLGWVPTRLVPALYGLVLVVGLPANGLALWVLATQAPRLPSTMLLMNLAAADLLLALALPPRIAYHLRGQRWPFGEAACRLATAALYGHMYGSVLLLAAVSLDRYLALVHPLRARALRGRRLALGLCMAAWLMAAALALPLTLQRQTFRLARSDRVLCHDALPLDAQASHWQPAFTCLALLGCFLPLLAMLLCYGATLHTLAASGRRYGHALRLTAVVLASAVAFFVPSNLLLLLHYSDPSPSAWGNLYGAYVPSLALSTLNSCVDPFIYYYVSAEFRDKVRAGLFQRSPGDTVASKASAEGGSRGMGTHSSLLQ

Platelet [5] = assay: as §1, with “Antiplatelet aggregation” for “Antagonist”, “activity” for “activity at PAR4”, “thrombin” for “PAR4-activated peptide AYPGPK-NH2”; type: functional; details: dose 20-1000 nM, time 10 min, at 20 to 1000 nM
[6] = biological target: T2, Proteinase-activated receptor 1 (Homo sapiens) (UniProt P25116); assay: Antagonist activity at PAR1 in human plasma assessed as inhibition of PAR1-activated peptide SFLLRNPNDKY induced platelet aggregation at 20 nM to 1 uM preincubated for 5 mins followed by aggregation inducer addition and measured after 5 mins by light transmission aggregometry; type: functional, cell-free; details: dose 20-1000 nM, time 10.0 min
T2 sequence (whole entry): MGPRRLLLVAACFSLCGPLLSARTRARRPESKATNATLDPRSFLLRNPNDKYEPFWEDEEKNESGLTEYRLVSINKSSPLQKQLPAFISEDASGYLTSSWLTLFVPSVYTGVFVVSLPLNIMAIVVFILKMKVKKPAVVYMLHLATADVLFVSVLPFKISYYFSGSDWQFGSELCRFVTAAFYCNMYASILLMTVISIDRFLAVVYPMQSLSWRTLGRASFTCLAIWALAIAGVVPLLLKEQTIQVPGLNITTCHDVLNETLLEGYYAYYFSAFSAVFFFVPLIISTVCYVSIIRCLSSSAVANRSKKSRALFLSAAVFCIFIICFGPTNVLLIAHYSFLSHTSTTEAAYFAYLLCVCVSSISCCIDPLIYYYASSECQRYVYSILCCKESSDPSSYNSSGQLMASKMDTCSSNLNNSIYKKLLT

Platelet [7] = assay: Antagonist activity at P2Y1/P2Y12 in human plasma assessed as inhibition of ADP-induced platelet aggregation at 20 nM to 1 uM preincubated for 5 mins followed by aggregation inducer addition and measured after 5 mins by light transmission aggregometry; type: cell-free; details: dose 20-1000 nM, time 10.0 min
[8] = biological target: T3, Platelet glycoprotein VI (Homo sapiens) (UniProt Q9HCN6); assay: Antagonist activity at GPVI in human plasma assessed as inhibition of collagen-induced platelet aggregation at 20 nM to 1 uM preincubated for 5 mins followed by aggregation inducer addition and measured after 5 mins by light transmission aggregometry; type: cell-free; details: dose 20-1000 nM, time 10.0 min
T3 sequence (whole entry): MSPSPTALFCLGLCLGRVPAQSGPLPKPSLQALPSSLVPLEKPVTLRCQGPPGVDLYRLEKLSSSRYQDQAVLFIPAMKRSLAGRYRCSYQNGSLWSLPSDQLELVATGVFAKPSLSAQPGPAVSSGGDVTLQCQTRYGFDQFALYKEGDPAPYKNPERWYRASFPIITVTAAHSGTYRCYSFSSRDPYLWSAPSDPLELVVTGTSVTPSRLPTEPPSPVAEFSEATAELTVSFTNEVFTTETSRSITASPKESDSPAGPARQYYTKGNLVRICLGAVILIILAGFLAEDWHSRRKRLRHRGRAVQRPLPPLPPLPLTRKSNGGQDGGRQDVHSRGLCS

[9] = biological target: T4, Thromboxane A2 receptor (Homo sapiens) (UniProt P21731); assay: Antagonist activity at thromboxane A2 receptor in human plasma assessed as inhibition of U46619-induced platelet aggregation at 20 nM to 1 uM preincubated for 5 mins followed by aggregation inducer addition and measured after 5 mins by light transmission aggregometry; type: functional, cell-free; details: dose 20-1000 nM, time 10.0 min
T4 sequence (whole entry): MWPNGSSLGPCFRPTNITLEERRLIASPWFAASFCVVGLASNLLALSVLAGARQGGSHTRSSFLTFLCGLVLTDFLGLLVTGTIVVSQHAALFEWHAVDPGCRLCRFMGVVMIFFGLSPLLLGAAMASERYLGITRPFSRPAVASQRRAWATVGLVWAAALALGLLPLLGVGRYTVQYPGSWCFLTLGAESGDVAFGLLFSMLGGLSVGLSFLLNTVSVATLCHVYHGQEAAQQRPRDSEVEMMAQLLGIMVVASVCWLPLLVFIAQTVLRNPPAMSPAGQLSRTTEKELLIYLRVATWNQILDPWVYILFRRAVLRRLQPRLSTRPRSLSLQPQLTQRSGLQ

Platelet [10] = assay: Antagonist activity at GPIB/vWF in human plasma assessed as inhibition of ristocetin-induced platelet aggregation at 20 nM to 1 uM preincubated for 5 mins followed by aggregation inducer addition and measured after 5 mins by light transmission aggregometry; type: cell-free; details: dose 20-1000 nM, time 10.0 min
[11] = biological target: T1, Proteinase-activated receptor 4 (Homo sapiens); assay: Antagonist activity at PAR4 in human filtered plasma assessed as inhibition of PAR4-activated peptide AYPGPK-NH2 induced platelet aggregation at 3 nM preincubated for 5 mins followed by aggregation inducer addition and measured after 5 mins by light transmission aggregometry; type: functional, cell-free; details: filed as antagonist, time 10.0 min
[12] = biological target: T1, Proteinase-activated receptor 4 (Homo sapiens); assay: Antagonist activity at PAR4 in human filtered plasma assessed as inhibition of PAR4-activated peptide AYPGPK-NH2 induced platelet aggregation at 10 nM preincubated for 5 mins followed by aggregation inducer addition and measured after 5 mins by light transmission aggregometry relative to control; type: functional, cell-free; details: filed as antagonist, time 10.0 min
[13] = biological target: T2, Proteinase-activated receptor 1 (Homo sapiens); assay: Antagonist activity at PAR1 in human plasma assessed as inhibition of PAR1-activated peptide SFLLRNPNDKY induced platelet aggregation upto 9 uM preincubated for 5 mins followed by aggregation inducer addition and measured after 5 mins by light transmission aggregometry; type: functional, cell-free; details: time 10.0 min
[14] = Oral bioavailability in Sprague-Dawley rat at 50 mg/kg; type: ADME, organism-based; details: in vivo

half-life at 1 µM [1]: 12.2 min | IC50 (Platelet [2]): 3.2 nM | Activity [4]: < 30% | Activity [6]: inactive | Activity (Platelet [7]): inactive | Activity [8]: inactive | Activity [9]: inactive | Activity (Platelet [10]): inactive | Activity [11]: Active | inhibition [12]: 100% | Activity [13]: inactive | bioavailability [14]: 0.94%
SMILES: COc1nn2cc(-c3cc4ccc5c(c4o3)OCCO5)nc2s1
inhibition at 20 µM (Platelet [3]): 90.5% | Activity (Platelet [5]): <30%
